This passage reports IC50 results from US20110190336A1, “AZABENZIMIDAZOLONES” (CARA THERAPEUTICS, INC., priority 2008, published 2011).

Bounds are passed on as bounds.

This test has as its target T1, human DP2 receptor (Homo sapiens, UniProt Q9Y5Y4).
T1 construct: expressed in transfected cells; host or cells: CHO-K1 FLP-In (Invitrogen, catalog no. R758-07), stably transfected
T1 sequence (Q9Y5Y4 1-395): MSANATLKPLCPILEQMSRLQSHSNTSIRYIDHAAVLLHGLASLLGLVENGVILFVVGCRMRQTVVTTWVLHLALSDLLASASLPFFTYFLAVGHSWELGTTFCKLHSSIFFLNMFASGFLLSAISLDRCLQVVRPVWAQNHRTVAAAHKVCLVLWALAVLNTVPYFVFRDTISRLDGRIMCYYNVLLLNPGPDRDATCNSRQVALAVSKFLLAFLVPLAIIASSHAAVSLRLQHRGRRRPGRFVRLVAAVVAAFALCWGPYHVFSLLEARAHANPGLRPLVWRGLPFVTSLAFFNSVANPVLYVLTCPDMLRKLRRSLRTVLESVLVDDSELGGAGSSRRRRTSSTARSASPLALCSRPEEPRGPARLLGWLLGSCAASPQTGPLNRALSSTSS
Kind of test: Prostaglandin D2 binding inhibition assay (scintillation proximity assay, 3H PGD2, membranes of transfected CHO cells). The settings on record: SPA, 5.5 nM 3H PGD2, CHO-K1 FLP-In human DP2 membranes; upper limit determinable 30 μM; read-out: IC50 ranges for inhibition of PGD2 binding to human DP2. As to the method:
The ability of compounds to inhibit binding of prostaglandin D2 (PGD2) to the human DP2 receptor was measured using a scintillation proximity assay (SPA). Chinese Hamster Ovary FLP-In cell lines (CHO-K1 FLP-In, Invitrogen, catalog no. R758-07) were stably transfected with the human DP2 gene (Genebank: AY507142). Cell lines were grown in suspension in EX-CELL 302 CHO Serum-free medium (Sigma, catalog no. 14324C) supplemented with 1% Fetal Bovine Serum (Invitrogen no. 10099-141), 2 mM L-glutamine (Invitrogen, catalog no. 25030-081) and 0.5 mg/ml Hygromycin B (Invitrogen, catalog no. 10687-010). Cells were collected by centrifugation in a Beckman Coulter Allegra X-12R centrifuge at 150×g for 5 minutes at room temperature.
Membranes from transfected cells were isolated for binding assays. Cell pellets containing approximately 2×10^9 cells were resuspended in 35 ml of cold membrane homogenization buffer (10 mM Tris (Sigma, catalog no. T2663), 1 mM EDTA (Fluka BioChemika no. 03690), and 70 μl of protease inhibitor cocktail (Sigma, catalog no. P8340)). Cells were homogenized with 30 strokes of a dounce homogenizer (Kontes, catalog no. 885303-0040), and the solution centrifuged at 200×g for 10 minutes. The supernatant was transferred to a 50 ml Oakridge tube (Beckman, catalog no. 357000) and centrifuged in a Beckman Coulter Avanti J-26×PI centrifuge with a JA30.50 rotor at 81,000×g for 1 hour at 15° C. The pellet was resuspended in membrane storage buffer (50 mM Tris (Sigma, catalog no. T2663), 2.5 mM EDTA (Fluka BioChemika no. 03690), 5 mM magnesium chloride (Sigma, catalog no. M1028), 100 mg/ml sucrose (Sigma, catalog no. 50389) and a 1:500 dilution of protease inhibitor cocktail (Sigma, catalog no. P8340)) and the total protein was quantitated using a BCA protein measurement kit (Pierce, catalog no. 23225). Aliquots were frozen at −80° C. until used. Compounds were tested for their ability to inhibit PGD2 binding to the purified membranes. 5 μg of the purified membranes, 0.25 mg of wheat germ agglutinin PVT SPA beads (GE Healthcare, catalog no. RPNQ0060) and 5.5 nM of ^3H PGD2 (PerkinElmer, catalog no. NET-616) were mixed in assay buffer ((50 mM Tris (Sigma, catalog no. T2663), 10 mM magnesium chloride (Sigma, catalog no. M1028), 100 mM sodium chloride (Sigma, catalog no. S6546) and 0.1% bovine serum albumin (Sigma, catalog no. A2153)). Using a Multidrop bulk dispenser, 75 μl of the assay mixture was dispensed in Optiplates (PerkinElmer, catalog no. 6007299) containing the compounds to be tested. After a 60 minute incubation period at room temperature, the plates were read on a PerkinElmer Topcount NXT HTS, and individual wells were quantitated as counts per minute (CPM). Data were expressed as a percent of the difference between the maximum and minimum responses. IC50 values (the concentration of compound producing 50% of the maximal response) were determined using a two-parameter non-linear regression algorithm analyzed using CambridgeSoft Bioassay software. Table 2 gives the range of IC50 values for claimed compounds in the binding assay.
For the molecule `O=C(O)Cn1c(=O)n(C2CCN(S(=O)(=O)c3ccc(Cl)cc3F)CC2)c2ncccc21` [Compound 30, 2-(3-(1-(4-chloro-2-fluorophenylsulfonyl)piperidin-4-yl)-2-oxo-2,3-dihydro-1H-imidazo[4,5-b]pyridin-1-yl)acetic acid], the IC50 was below 1 µM. As to `O=C(O)Cn1c(=O)n(C2CCN(S(=O)(=O)c3ccc(Cl)cc3Cl)CC2)c2ncccc21` [Compound 31, 2-(3-(1-(2,4-dichlorophenyl-sulfonyl)piperidin-4-yl)-2-oxo-2,3-dihydro-1H-imidazo[4,5-b]pyridin-1-yl)acetic acid], the IC50 is below 1 µM. As to `O=C(O)Cn1c(=O)n(C2CCN(S(=O)(=O)c3cccc4ccccc34)CC2)c2ncccc21` [Compound 32, 2-(3-(1-(naphthalen-1-ylsulfonyl)piperidin-4-yl)-2-oxo-2,3-dihydro-1H-imidazo[4,5-b]pyridin-1-yl)acetic acid], the IC50 is 1 to 10 µM.

On to `O=C(O)Cn1c(=O)n(C2CCN(S(=O)(=O)c3ccccc3OC(F)(F)F)CC2)c2ncccc21` [Compound 33, 2-(2-oxo-3-(1-(2-(trifluoromethoxy)phenylsulfonyl)piperidin-4-yl)-2,3-dihydro-1H-imidazo[4,5-b]pyridin-1-yl)acetic acid], for which the IC50 is 1 to 10 µM. The value for `O=C(O)Cn1c(=O)n(C2CCN(S(=O)(=O)C3CCCCC3)CC2)c2ncccc21` [Compound 34, 2-(3-(1-(cyclohexylsulfonyl)piperidin-4-yl)-2-oxo-2,3-dihydro-1H-imidazo [4,5-b]pyridin-1-yl)acetic acid] was 1 to 10 µM; that for `O=C(O)Cn1c(=O)n(C2CCN(S(=O)(=O)c3ccc(Cl)c(Cl)c3)CC2)c2ncccc21` [Compound 35, 2-(3-(1-(3,4-dichlorophenyl-sulfonyl)piperidin-4-yl)-2-oxo-2,3-dihydro-1H-imidazo[4,5-b]pyridin-1-yl)acetic acid] was 1 to 10 µM. For `Cc1cc(F)ccc1S(=O)(=O)N1CCC(n2c(=O)n(CC(=O)O)c3cccnc32)CC1` [Compound 36, 2-(3-(1-(4-fluoro-2-methylphenyl-sulfonyl)piperidin-4-yl)-2-oxo-2,3-dihydro-1H-imidazo[4,5-b]pyridin-1-yl)acetic acid] the value was below 1 µM; for `O=C(O)Cn1c(=O)n(C2CCN(S(=O)(=O)c3cccc(Cl)c3)CC2)c2ncccc21` [Compound 37, 2-(3-(1-(3-chlorophenyl-sulfonyl)piperidin-4-yl)-2-oxo-2,3-dihydro-1H-imidazo[4,5-b]pyridin-1-yl)acetic acid], 1 to 10 µM. `Cc1cccc(S(=O)(=O)N2CCC(n3c(=O)n(CC(=O)O)c4cccnc43)CC2)c1` [Compound 38, 2-(2-oxo-3-(1-(m-tolylsulfonyl)piperidin-4-yl)-2,3-dihydro-1H-imidazo[4,5-b]pyridin-1-yl)acetic acid]: the IC50 was in the range of 1 to 10 µM. As to `O=C(O)Cn1c(=O)n(C2CCN(S(=O)(=O)c3ccc(C(F)(F)F)cc3)CC2)c2ncccc21` [Compound 39, 2-(2-oxo-3-(1-(4-(trifluoromethyl)phenylsulfonyl)piperidin-4-yl)-2,3-dihydro-1H-imidazo[4,5-b]pyridin-1-yl)acetic acid], the IC50 is 1 to 10 µM. Regarding `O=C(O)Cn1c(=O)n(C2CCN(S(=O)(=O)c3ccc(F)c(F)c3)CC2)c2ncccc21` [Compound 40, 2-(3-(1-(3,4-difluorophenylsulfonyl)piperidin-4-yl)-2-oxo-2,3-dihydro-1H-imidazo[4,5-b]pyridin-1-yl)acetic acid], the IC50 fell in the range of 1 to 10 µM. For the molecule `O=C(O)Cn1c(=O)n(C2CCN(S(=O)(=O)c3cccc(C(F)(F)F)c3)CC2)c2ncccc21` [Compound 41, 2-(2-oxo-3-(1-(3-(trifluoromethyl)phenylsulfonyl)piperidin-4-yl)-2,3-dihydro-1H-imidazo[4,5-b]pyridin-1-yl)acetic acid], the IC50 is 1 to 10 µM.
